Experiment: Effect of negatively charged amino acid solutions on integrity of cat hair (scan microscope)
Details: 0.40 g cat hair in 100 g solution, 100° F., 24 hours, 810× magnification; for degree of hair damage, 0.125% solution: 0.125% amino acid solution diluted from 1.0% solution adjusted to pH 11.3
Protocol: In this example, various negatively charged amino acid solutions were prepared for testing on cat hair to determine how the solution affected the integrity of the hair. First, a 1.0% amino acid solution was prepared by mixing 5.0 g amino acid with 495 g of water. The resulting pH value of each amino acid solution at this point differed, based largely upon the different pK values for each amino acid. A sufficient quantity of sodium hydroxide solution (50.0%) was added to the 1.0% amino acid solution to adjust the pH to 11.3. Weaker amino acid solutions (0.5%, 0.25%, and 0.125%) were subsequently prepared by dilution of the 1.0% solution.
Approximately 0.40 g of cat hair were mixed with 100 g samples of each respective amino acid solution. The cat hair and amino acid solution were kept at 100° F. for 24 hours. Photographs of the cat hairs were taken with a Topcon Technology Company Model ISI-X408 electrical scan microscope at 810× magnification and the degree of hair damage and loss of identifying characteristics was noted.

## CSCCC(N)C(=O)O (racemic) [DL-methionine]
  degree of hair damage, 0.125% solution: No damage

## C[C@H](N)C(=O)O [Alanine]
  degree of hair damage, 0.125% solution: Cuticle removed

## N[C@@H](CC(=O)O)C(=O)O [Aspartic acid]
  degree of hair damage, 0.125% solution: Cuticle removed

## N[C@@H](CS)C(=O)O [Cysteine]
  degree of hair damage, 0.125% solution: No damage

## N[C@@H](CCC(=O)O)C(=O)O [Glutamic acid]
  degree of hair damage, 0.125% solution: Cuticle removed

## NCC(=O)O [Glycine]
  degree of hair damage, 0.125% solution: Cuticle removed
Listed as glycine
  degree of hair damage, 0.125% solution: portions of the cuticle layer have been removed thereby exposing the inner cortex layer
0.25% amino acid solution diluted from 1.0% solution adjusted to pH 11.3
  degree of hair damage, 0.25% solution: cuticle 14 has separated thereby forming a channel and exposing the hair cortex
0.5% amino acid solution diluted from 1.0% solution adjusted to pH 11.3
  degree of hair damage, 0.5% solution: Portions of the hair cortex 18 have been completely dissolved
1.0% amino acid solution adjusted to pH 11.3
  degree of hair damage, 1.0% solution: cuticle has been removed thereby exposing the hair cortex

## NCCCC[C@H](N)C(=O)O [Lysine]
  degree of hair damage, 0.125% solution: No damage

## O=C(O)[C@@H]1CCCN1 [Proline]
  degree of hair damage, 0.125% solution: Cuticle removed

Reference: US20040096481A1, “Pet food compositions having electrostatically charged ingredient” (priority 2002, published 2004)
